We go through five compounds from US9808439B2 (Macau University of Science and Technology, priority 2015, dated 2017).

Structures are written as SMILES. Like-named read-outs stand apart in the source and are kept apart here.

For one assay, the system named is A549/T cells. Nature of the assay: SRB cell cytotoxicity assay in A549/T. Format: cell-based, human. The settings on record: for IC50: Homo sapiens.
For assay [1], the system named is A2780/T cells. Description: SRB cell cytotoxicity assay in A2780/T. The settings on record: for fold reversal / IC50: A2780/T; for IC50: read-out: IC50 ± SD.
Procedure: Sulphorhodamine B (SRB) assays were carried out as previously described to assess cell density, based on sensitive measure of total cellular protein, which performed similarly compared with other proliferation assays such as MTT assay. Briefly, cells were seeded into flat bottomed 96-well plates at an initial density of 7.5×10^3 per well before treatment. […] After removing the medium, cells were fixed in 10% trichloroacetic acid for 1 h at 4° C. and then washed with water five times. 0.4% SRB dissolved in 1% v/v acetic acid was added and incubated 30 mm for staining. The cells were quickly washed with 1% acetic acid and left to dry overnight. The protein bound SRB was solubilized by adding 200 μl 10 mM Tris buffer per well and measured at wavelengths 490 nm using a plate reader (Spectra MAX 250; Molecular Devices, Sunnyvale, Calif.).
The test system of assay [2] is A2780/T cells. Description: Combination index, Chou-Talalay method (CalcuSyn). Format: cell-based, human. Here is the method: Combination index (CI) was calculated to quantitatively depict synergistic ([…], additive (CI=1), or antagonistic (CI>1) effect. With the use of CalcuSyn software v. 2.1 (Bio-soft), synergy is further refined as synergism (combination index=0.3-0.7), strong synergism (combination index=0.1-0.3), and very strong synergism (combination index<0.1).

For assay [3], the system named is A2780/T cells. Description: Apoptosis by Annexin-V/PI double staining. The format is cell-based, human. The settings on record: 7.53 μM tangeretin or 0.94 μM PTX alone. The procedure: After treatment, 1×10^6 cells were collected, washed and suspended in 100 μl of binding buffer (10 mM N-2-hydroxyethylpiperazine-N,-2-ethanesulfonic acid/NaOH, 140 mM NaCl, 2.5 mM CaCl2, pH 7.4). Apoptotic cells were identified by double supravital staining with 5 μl recombinant FITC (fluorescein isothiocyanate)-conjugated Annexin-V and 5 μl PI (50 μg/ml). The cells were stained for […] at room temperature in the dark, and analyzed by fluorescence-activated cell sorting cater-plus flow cytometry. Data acquisition and analysis were performed in BD FACS Aria with FlowJo software.

The test system of a further assay is A2780 cells. Nature of the assay: Cell cycle analysis by flow cytometry in A2780. Format: cell-based, human. The settings on record: A2780, PTX 0.01 μM. Here is the method: (§1) A2780/T cells were harvested after 24-hours, 48-hour, or 72-hour treatment and washed twice with ice-cold PBS. The cells were fixed and permeabilized with 70% ice-cold ethanol overnight at 4° C. or −20° C. for 2 h. After one additional wash in PBS, cells were stained with a staining solution containing PI ([…]) and RNase A (250 μg/ml) for […] at room temperature. They were then pelleted, washed and suspended in PBS to a final concentration of 1×10^6/ml and analyzed by flow cytometry (BD FACS Aria, BD Biosciences, San Jose, Calif.).
(In general: Flow cytometry measures light scatter and fluorescence of single cells or particles in a stream.)

Assay [4] deals with A2780/T cells. Nature of the assay: Cell cycle analysis by flow cytometry in A2780/T. The format is cell-based, human. The settings on record: 48 h. Here is the method:
as §1

For another assay, the system named is p53. Nature of the assay: Western blot of p53 expression. The format is cell-based, human. The following applies: PTX in combination with tangeretin. The procedure:
The total cellular samples were harvested and rinsed twice with ice-cold PBS buffer. Cell extracts were lysed in RIPA buffer (50 mM Tris (pH 7.4), 150 mM NaCl, 1% Triton X-100, 1% sodium deoxycholate, 0.1% SDS, sodium orthovanadate, sodium fluoride and EDTA) containing protease inhibitor cocktails (Roche Life Science, USA). Protein concentration was determined using the BCA protein assay kit. Equal amounts of cell lysates were resolved by SDS-PAGE and subsequently electrophoretically transferred onto PVDF membranes (Millipore, Darmstadt, Germany). After blocking in tris-buffered saline containing 0.1% of Tween20 (TBST) with 5% (w/v) skim milk (Nestle Carnation, New Zealand) for 2 h at room temperature, the membranes were incubated with primary and secondary antibodies and subsequently visualized with an enhanced chemiluminescence detection kit (Thermo Scientific™ SuperSignal™ West Pico Chemiluminescent Substrate, USA). β-Actin was used as the loading control for the experimental data analysis.
(A western blot detects proteins with antibodies after separation by electrophoresis.)

For assay [5], the system named is A2780/T cells. Nature of the assay: Intracellular accumulation of DOX and Flutax-2 in A2780/T. Format: cell-based, human. The settings on record: 8 h, 7.53 μM tangeretin or 20 μM QND. Here is the method: cells (5×10^6) were cultured on the cover glass (ISO LAB 20×20 mm). […] After treatment, cells were fixed in 4 wt % formaldehyde (Sigma-Aldrich). Nuclear DNA was stained with 1 μg/mL blue-fluorescent DAPI (1 mg/mL in H2O stock solution; Invitrogen D1306). One drop of fluorescent preservation solution (fluorsave reagent, CALBIOCHEM) was added before observation. Imaging was carried out for comparing the intracellular accumulation of DOX and flutax-2 with a Fluorescence Microscopy (Leica DM2500, Leica, Germany). […] Cells were detached, re-suspended in 500 μl of PBS after washed twice with cold PBS, and analyzed by flow cytometry (BD FACS Aria, BD Biosciences, San Jose, Calif.). Excitation and emission wavelengths (nm) used for DOX and flutax-2 were as follows: 480 to 585; and 496 to 524.

Setting [6] is: A549, 48 h, A549/T, 48 h, drug alone, read-out: IC50 ± SD.
Where [7] appears, read: A549, A549/T, +7.53 μM TG, read-out: IC50 ± SD.
The mark [8] stands for this setting: A549, A549/T, +0.84 μM TG, read-out: IC50 ± SD.
[9] abbreviates: A549, A549/T, +5.21 μM TG, read-out: IC50 ± SD.
Setting [10] is: 0.94 μM PTX with 7.53 μM tangeretin.
[11] abbreviates: 0.94 μM PTX, absence of tangeretin.

In the case of `O=c1[nH]cc(F)c(=O)[nH]1` [5-Fluorouracil, 5-fluorouracil], the fold reversal worked out at 1.34 with A549/T cells (A549/T, +0.83 μM TG); 2.12 in the assay with A549/T cells (A549/T, +2.51 μM TG); 6.05 with A549/T cells (A549/T, +7.53 μM TG); 1.00 with A549/T cells (A549/T, drug alone); 1.19 in the assay on A2780/T cells [1] (+0.83 μM TG); 2.12 with A2780/T cells [1] (+2.51 μM TG). In addition, the figures for the fold reversal with A2780/T cells [1] (+7.53 μM TG) and in the assay on A2780/T cells [1] (drug alone) were 6.31 and 1.00, respectively. The IC50 in the assay with A549/T cells (setting [6]) was 142 ± 23.1 µM; with A549/T cells (A549, A549/T, +0.83 μM TG, read-out: IC50 ± SD), 106 ± 8.63 µM; in the assay on A549/T cells (A549, A549/T, +2.51 μM TG, read-out: IC50 ± SD) it was 67 ± 5.44 µM; in the assay on A549/T cells (setting [7]), 23.8 ± 1.93 µM; in the assay with A2780/T cells [1] (48 h, drug alone), 179 ± 29 µM; in the assay on A2780/T cells [1] (+0.83 μM TG) it was 152 ± 36.7 µM. In addition, the IC50 turned out to be 84.3 ± 6.56 µM in the assay with A2780/T cells [1] (+2.51 μM TG) and 28.4 ± 4.6 µM with A2780/T cells [1] (+7.53 μM TG).

`COc1cccc2c1C(=O)c1c(O)c3c(c(O)c1C2=O)C[C@@](O)(C(C)=O)C[C@@H]3O[C@H]1C[C@H](N)[C@H](O)[C@H](C)O1` [Daunorubicin, daunorubicin]: the fold reversal in the assay on A549/T cells (A549/T, +0.84 μM TG) is given as 1.41; with A549/T cells (A549/T, +5.21 μM TG) it was 2.25; with A549/T cells (A549/T, +7.53 μM TG) it was 6.36; in the assay with A549/T cells (A549/T, drug alone), 1.00; in the assay on A2780/T cells [1] (+0.84 μM TG), 1.34; with A2780/T cells [1] (+5.21 μM TG), 2.25. Further, the fold reversal in the assay with A2780/T cells [1] (+7.53 μM TG) is on record as 8.03; in the assay with A2780/T cells [1] (drug alone) it was 1.00. Further, the IC50 with A549/T cells (A549, 48 h, read-out: IC50 ± SD, A549/T, 48 h, drug alone) was found to be 6.7 ± 0.54 µM; in the assay on A549/T cells (A549, read-out: IC50 ± SD, A549/T, +0.84 μM TG), 4.74 ± 0.38 µM; in the assay with A549/T cells (A549, read-out: IC50 ± SD, A549/T, +5.21 μM TG), 2.99 ± 0.24 µM; in the assay on A549/T cells (A549, read-out: IC50 ± SD, A549/T, +7.53 μM TG), 1.06 ± 0.08 µM; with A2780/T cells [1] (48 h, drug alone), 7.51 ± 0.61 µM; with A2780/T cells [1] (+0.84 μM TG) it was 5.66 ± 0.92 µM. Further, the IC50 with A2780/T cells [1] (+5.21 μM TG) was 3.4 ± 0.82 µM; in the assay on A2780/T cells [1] (+7.53 μM TG), 0.96 ± 0.23 µM.

As to `CC(=O)O[C@@]12CO[C@@H]1C[C@H](O)[C@@]1(C)C(=O)[C@H](O)C3=C(C)[C@@H](OC(=O)[C@H](O)[C@@H](NC(=O)OC(C)(C)C)c4ccccc4)C[C@@](O)([C@@H](OC(=O)c4ccccc4)[C@H]21)C3(C)C` [Docetaxel, docetaxel], the fold reversal is listed as 1.58 with A549/T cells (A549/T, +0.84 μM TG); 3.82 in the assay on A549/T cells (A549/T, +5.21 μM TG); 12.07 with A549/T cells (A549/T, +7.53 μM TG); 1.00 in the assay with A549/T cells (A549/T, drug alone); 1.99 with A2780/T cells [1] (+0.84 μM TG); 7.95 in the assay with A2780/T cells [1] (+5.21 μM TG). Moreover, the fold reversal is given as 33.66 in the assay with A2780/T cells [1] (+7.53 μM TG) and 1.00 in the assay with A2780/T cells [1] (drug alone). Also, the IC50 in the assay with A549/T cells (setting [6]) was found to be 12.7 ± 2.06 µM; with A549/T cells (setting [8]), 7.8 ± 1.29 µM; in the assay on A549/T cells (setting [9]), 3.36 ± 0.28 µM; with A549/T cells (setting [7]), 1.06 ± 0.08 µM; with A2780/T cells [1] (48 h, drug alone) it was 28.4 ± 4.59 µM; in the assay on A2780/T cells [1] (+0.84 μM TG), 14.2 ± 2.31 µM. For the same compound, the IC50 with A2780/T cells [1] (+5.21 μM TG) turned out to be 3.57 ± 0.58 µM; in the assay on A2780/T cells [1] (+7.53 μM TG), 0.84 ± 0.07 µM.

As to `CC(=O)O[C@H]1C(=O)[C@@]2(C)[C@H]([C@H](OC(=O)c3ccccc3)[C@]3(O)C[C@H](OC(=O)[C@H](O)[C@@H](NC(=O)c4ccccc4)c4ccccc4)C(C)=C1C3(C)C)[C@]1(OC(C)=O)CO[C@@H]1C[C@@H]2O` [Paclitaxel, paclitaxel], the fold reversal in the assay on A549/T cells (A549/T, +0.84 μM TG) is 2.67; in the assay with A549/T cells (A549/T, +2.51 μM TG), 9.52; with A549/T cells (A549/T, +5.21 μM TG), 9.52; in the assay with A549/T cells (A549/T, +7.53 μM TG), 80.05; in the assay on A549/T cells (A549/T, drug alone), 1.00; in the assay with A2780/T cells [1] (+0.84 μM TG), 1.59. Besides, the results for the fold reversal in the assay with A2780/T cells [1] (+5.21 μM TG), in the assay on A2780/T cells [1] (+7.53 μM TG) and in the assay on A2780/T cells [1] (drug alone) were 5.66, 18.88 and 1.00, respectively. Moreover, the IC50 in the assay on A549/T cells (setting [6]) turned out to be 2.53 ± 0.41 µM; with A549/T cells (setting [8]), 1.03 ± 0.33 µM; in the assay with A549/T cells (setting [9]), 0.27 ± 0.02 µM; in the assay with A549/T cells (setting [7]), 0.03 ± 0.01 µM; in the assay on A2780/T cells [1] (48 h, drug alone), 2.51 µM; in the assay with A2780/T cells [1] (+0.84 μM TG), 1.58 ± 0.04 µM. Further, the IC50 amounted to 0.45 ± 0.07 µM with A2780/T cells [1] (+5.21 μM TG) and 0.14 ± 0.02 µM in the assay on A2780/T cells [1] (+7.53 μM TG). Moreover, the EC50 with A2780/T cells [2] (Homo sapiens, CalcuSyn simulation, alone or in combination, read-out: Dose PTX at Fa 0.5 (ED50)) is 3.61 µM. In addition, the “decrease for the ED50 dose of PTX” value with A2780/T cells [2] (combination with tangeretin versus PTX alone) is given as 18 fold. In the assay with A2780/T cells [3], the “apoptosis induction, single treatment” value was “did not show apoptosis induction”. The G1 phase content in the assay on A2780 cells (24 hours) amounted to 30.95%; with A2780 cells (48 hours), 14.13%; in the assay on A2780 cells (72 hours) it was 13.07%. Moreover, the figures for the G2-M content in the assay with A2780 cells (24 hours), in the assay with A2780 cells (48 hours) and in the assay on A2780 cells (72 hours) were 52.63%, 62.33% and 74.20%, respectively. Moreover, the results for the G1 phase cells in the assay on A2780/T cells [4] (setting [10]) and with A2780/T cells [4] (setting [11]) were 13.87% and 68.30%, respectively. Moreover, the G2 phase cells worked out at 72.37% in the assay with A2780/T cells [4] (setting [10]) and 18.87% in the assay on A2780/T cells [4] (setting [11]). In addition, the “accumulation of p53” value in the assay with p53 is “accumulation of p53”. In the assay with A2780/T cells [1] (A2780/T versus parental A2780), the “mean IC50 in A2780/T greater than that of A2780 (degree of resistance)” value came to 501 fold.

Turning to `C=C[C@H]1C[N@@]2CC[C@H]1C[C@@H]2[C@@H](O)c1ccnc2ccc(OC)cc12` [QND, quinidine], the “intracellular accumulations of DOX and Flutax-2” value in the assay on A2780/T cells [5] is given as “higher than that of untreated A2780/T”.
